Experimental findings from US7674813B2, “Heterocyclic sulfonamide inhibitors of beta amyloid production containing an azole” (Wyeth, priority 2004, dated 2010) are described below.

pEC50: −log10 of the molar value.

What all share (type): cell-based
In experiment [1] the test system is beta amyloid 42. Description: Aβ40/42 ELISA Assay (Aβ42). Particulars: CHO cells carrying the APP-REP-NL plasmid, 22 hours, sandwich ELISA; for pEC50: Cricetulus griseus. Here is the method: (§1) Compounds are diluted from DMSO stocks to 2 μM and below in a cell culture medium. Compounds are then applied to CHO cells carrying the APP-REP-NL plasmid [Sudhir et. al, J. Biolog. Chem. 267:25602-25608 (1992)] for a period of 22 hours. After the conditioning period, medium is collected, diluted in assay buffer containing protein, and samples, controls, and synthetic peptide standards are incubated on a prepared ELISA plate. Using a sandwich ELISA with antibodies specifically directed against the carboxyl terminus of beta amyloid 40 or 42 (analogous to the method reported by Haugabook et al., J. Neurosci. Methods 108:171-179 (2001) but using goat anti-mouse IgG1 (source: Southern Biotech) as the anchor, 6E10 as the capture antibody (Source: SENETEK), rabbit antiAβ40 and antiAβ42 (source: QCB) and APL-donkey anti-rabbit IgG (H+L, source: Southern Biotech) as the detection antibody), the effect of the compound treatment on the cellular production of extracellular beta amyloid is quantified. Cells treated with compound are subsequently incubated in cell culture medium containing MTS-formazan. After a short incubation period, MTS/medium containing plates are read in a spectrophotometer to determine the extent to which compound toxicity affected the cell's metabolism and ability to synthesize beta amyloid.
(§2) A. Test Samples: compound samples are supplied as 20 mM stock solutions in a 100% DMSO solution.
(§3) B. APP-REP-NL cells: Qualified cell lines are carried from week to week using 1:100 dilutions and are cultured in DMEM supplemented with 1× antibiotic/antimycotic, 200 ug/ml of G418 antibiotic, and 10% certified fetal calf serum. Cells are also banked in liquid nitrogen. Periodically, beta amyloid production is assessed, and cells are either kept in culture or replaced with progenitors at full expression.
(§4) C. Antibodies: From certified lots that have already been qualified in this assay. Antibodies are stored in small frozen aliquots at −80° C. that are thawed and used.
(§5) A compound is considered active if it has an EC50 for Aβ40 reduction of <100 μM and no toxicity at doses in the vicinity of the EC50.

Experiment [2] concerns beta amyloid 40. Put plainly: Aβ40/42 ELISA Assay (Aβ40). Particulars: Cricetulus griseus; CHO cells carrying the APP-REP-NL plasmid, 22 hours, sandwich ELISA. As to the method: as §1, §2, §3, §4, §5
A general note: An ELISA detects its analyte on a solid surface through an enzyme-linked reagent.

Experiment [3] concerns amyloid precursor protein (APP) proteolysis. Put plainly: Repressor Release Assay (RRA). Details: key to RRA data (footnote symbols): **: Inactive due to toxicity; however, this compound, at 3-4 μM, reduces Aβ levels by 50% in CHO cells transfected with human APP695 as measured by ELISA without exhibiting toxicity.; ***: Inactive; however, this compound, at 1-4 μM, reduces Aβ levels by 50% in CHO cells transfected with human APP695 as measured by ELISA without exhibiting toxicity. The settings on record: transfected CHO-K1 cells; for fold induction at 20 µg/mL: Cricetulus griseus, CHO-K1, all compounds tested at 20 μg/mL, luciferase activity over diluent control, read-out: RRA data (Fold increase of APPI); for RRA data (footnote symbols): tested at 20 μg/mL. Here is the method: The beta amyloid inhibitory activity of many of the compounds of the present invention has been determined using the Repressor Release Assay (RRA). See, Table 3 below. A compound is considered active in RRA if it leads to at least a 1.5 fold increase in luciferase activity at 20 μg/mL and is non-toxic.
The compound is considered active in RRA if it leads to at least a 1.5 fold increase in APPI as measured by an increase in luciferase activity at 20 μg/mL and is non-toxic. Shuey, D. J., Sheiffele, P., Jones, D., Cockett, M. I., and Quinet, E. M. (1999) Repressor release: a useful tool for monitoring amyloid precursor protein (APP) proteolysis in mammalian cells. Society for Neuroscience Abstracts, Vol. 25, 29th Annual Meeting of Society for Neuroscience, Miami Beach, Fla., Oct. 23-28, 1999.
CHO—K1 cells are cultured in whole DMEM media (DMEM—High Glucose with 10% fetal bovine serum, 1% Non-essential Amino Acids, and 1% Penicillin-Streptomycin) at 37° C. with 5% CO2. Two million cells are plated into 10-cm dishes 24 hrs prior to transfection.
Transient transfections are completed as recommended by Gibco BRL using their Lipofectamine Plus system. First, 6 μg of pRSVO-luc and 6 μg of APP-lacI construct DNA are added to 460 μL Opti-Mem transfection media and incubated with 30 μL Plus reagent for 15 minutes. Then, a lipid mixture of 40 μL Lipofectamine reagent and 460 μL Opti-Mem transfection media is incubated with the DNA-Plus reagent mixture for 15 minutes. During the DNA-lipid incubation, the CHO—K1 cells are washed once and covered in 5.0 mL DMEM media without Penicillin-Streptomycin. The DNA-lipid preparation is then layered onto these cells and incubated at 37° C. overnight.
One and one half million transfected cells per well (100 μL total volume) are plated into sterile, opaque Packard 96-well Cultur-Plates in clear DMEM whole media (DMEM—without phenol red) and incubated at 37° C. with 5% CO2 for 3-5 hours.
Compounds are diluted using two different protocols; one protocol is used for compounds supplied neat (weighed powder in vial) and the other protocol is used for compounds supplied in solution (20 mM in DMSO in 96-well plates). For both protocols, 25 mM Hepes and 25 mM Hepes/1% DMSO are prepared fresh to be used as diluent. The Hepes/DMSO is used as the diluent control on all experimental plates.
The following Table 1 depicts the steps for compound dilution (the last step is the addition of compound to cells/media in tissue culture plate):
Because some compounds arrive in 96-well format at 20 mM, the following Table 2 represents the protocol for their dilution (an average molecular weight of these compounds was used to calculate these dilutions and as above, the last step is the addition of compound to cells/media in tissue culture plate):
Once compounds are diluted, they are applied in duplicate on cells in tissue culture plates (prepared above). Cells are incubated with compound at 37° C. with 5% CO2 for an additional 36-48 hours.
Luciferase assays (LucLite reagent, Packard) are performed and are read on a Packard TopCount instrument. Media is removed from each 96-well plate and replaced with 100 μL PBS per well (with Mg^2+ and Ca^2+). An equal volume (100 μL) of the LucLite lysis/substrate buffer is added to each well and the plates are sealed and mixed in the dark on a rotary shaker for 15-30 minutes at room temperature. Luciferase readings are then taken on the TopCount instrument. Measurements are expressed as relative light units (RLU) and are calculated and analyzed in MS Excel as follows:
Fold Increase: amount of luciferase activity (measured in relative light units) over diluent control.
SEM: standard error of the mean for fold increase.
Activity: A compound is considered active if it results in at least a 1.5 fold increase in luciferase activity at 20 μg/mL.
Toxicity: determined by loss of signal (<0.75 fold increase).

The term pEC50 denotes the negative decadic logarithm of the EC50, by convention in mol/L.

As to `CC(C)[C@@H](NS(=O)(=O)c1ccc(Cl)s1)c1ccnn1-c1ccc(F)cc1` (stereo in doubt) [Example 41, 5-Chloro-N-{(1R)-1-[1-(4-fluorophenyl)-1H-pyrazol-5-yl]-2-methylpropyl}thiophene-2-sulfonamide], in experiment [1], the “Effect on Aβ42 production” value was “increase”. In experiment [2], the pEC50 was 4.66.
For `CCC(CC)C(NS(=O)(=O)c1ccc(Cl)s1)c1ccnn1-c1ccc(O)cc1` (centres unmarked) [Example 11, 5-Chloro-N-{2-ethyl-1-[1-(4-hydroxyphenyl)-1H-pyrazol-5-yl]butyl}thiophene-2-sulfonamide], the pEC50 in experiment [1] was 5.57; in experiment [2], 6.00. Further, the fold induction at 20 µg/mL in experiment [3] is 3.
With `Cc1ccc(-n2nccc2C(NS(=O)(=O)c2ccc(Cl)s2)C(C)C)cc1` (centres unmarked) [Example 14, 5-Chloro-N-{2-methyl-1-[1-(4-methylphenyl)-1H-pyrazol-5-yl]propyl}thiophene-2-sulfonamide], the pEC50 in experiment [1] and in experiment [2] was 5.92 throughout. Moreover, in experiment [3], the fold induction at 20 µg/mL stood at 17.7.
On to `CC(C)C(NS(=O)(=O)c1ccc(Cl)s1)c1ccnn1-c1ccc(F)cc1` (racemic) [Example 15, 5-Chloro-N-{1-[1-(4-fluorophenyl)-1H-pyrazol-5-yl]-2-methylpropyl}thiophene-2-sulfonamide], for which the pEC50 in experiment [1] is 5.29; in experiment [2], 5.40. Further, the fold induction at 20 µg/mL in experiment [3] worked out at 2.8.
For the compound `CCC(CC)C(NS(=O)(=O)c1ccc(Cl)s1)c1ccnn1OCc1ccccc1` (centres unmarked) [Example 33, N-{1-[1-(Benzyloxy)-1H-pyrazol-5-yl]-2-ethylbutyl}-5-chlorothiophene-2-sulfonamide], the pEC50 was 5.37 in experiment [1] and 5.59 in experiment [2]. In addition, in experiment [3], the “RRA data (footnote symbols)” value is “**”.
Take `CCC(CC)C(NS(=O)(=O)c1ccc(Cl)s1)c1nccn1Cc1ccc(O)cc1` (centres unmarked) [Example 30, 5-Chloro-N-{2-ethyl-1-[1-(4-hydroxybenzyl)-1H-imidazol-2-yl]butyl}thiophene-2-sulfonamide]: the pEC50 was 5.01 in experiment [1] and 5.28 in experiment [2]. Besides, in experiment [3], the fold induction at 20 µg/mL came to 8.6.
The corresponding values for `CCC(CC)C(NS(=O)(=O)c1ccc(Cl)s1)c1ccnn1-c1ccc(C(F)(F)F)cc1` (centres unmarked) [Example 18, 5-Chloro-N-(2-ethyl-1-{1-[4-(trifluoromethyl)phenyl]-1H-pyrazol-5-yl}butyl)thiophene-2-sulfonamide] are 4.97, 5.23 and 2.3.
The corresponding values for `CCC(CC)C(NS(=O)(=O)c1ccc(Cl)cc1)c1ccnn1Cc1ccc(OC)cc1` (centres unmarked) [Example 2, 4-Chloro-N-{2-ethyl-1-[1-(4-methoxybenzyl)-1H-pyrazol-5-yl]butyl}benzenesulfonamide] are 4.89, 5.19 and 11.3.
As for `CCC(CC)C(NS(=O)(=O)c1ccc(Br)cc1)c1ccnn1Cc1ccc(OC)cc1` (centres unmarked) [Example 3, 4-Bromo-N-{2-ethyl-1-[1-(4-methoxybenzyl)-1H-pyrazol-5-yl]butyl}benzenesulfonamide], the pEC50 is 5.00 in experiment [1] and 5.17 in experiment [2]. Also, in experiment [3], the fold induction at 20 µg/mL was found to be 5.9.
On to `CCC(CC)C(NS(=O)(=O)c1ccc(Cl)s1)c1ncnn1Cc1ccc(F)cc1` (centres unmarked) [Example 19, 5-Chloro-N-{2-ethyl-1-[1-(4-fluorobenzyl)-1H-1,2,4-triazol-5-yl]butyl}thiophene-2-sulfonamide], for which the fold induction at 20 µg/mL in experiment [3] amounted to 3.9.
In the case of `CC(C)C(NS(=O)(=O)c1ccc(Cl)s1)c1ccnn1-c1ccccc1` (centres unmarked) [Example 12, 5-Chloro-N-[2-methyl-1-(1-phenyl-1H-pyrazol-5-yl)propyl]thiophene-2-sulfonamide], the pEC50 is 5.48 in experiment [1] and 5.85 in experiment [2]. Also, in experiment [3], the “RRA data (footnote symbols)” value is “***”.
As for `COc1ccc(Cn2cccc2C(NS(=O)(=O)c2ccc(Cl)s2)C(C)C)cc1` (centres unmarked) [Example 32, 5-Chloro-N-{1-[1-(4-methoxybenzyl)-1H-pyrrol-2-yl]-2-methylpropyl}thiophene-2-sulfonamide], the “Effect on Aβ42 production” value in experiment [1] was “increase”. Moreover, the pEC50 in experiment [2] was 4.88. In addition, the fold induction at 20 µg/mL in experiment [3] was 6.6.
For the compound `CC(C)[C@H](NS(=O)(=O)c1ccc(Cl)s1)c1ccnn1-c1ccc(F)cc1` (stereo in doubt) [Example 42, 5-Chloro-N-{(1S)-1-[1-(4-fluorophenyl)-1H-pyrazol-5-yl]-2-methylpropyl}thiophene-2-sulfonamide], the pEC50 in experiment [1] and in experiment [2] was 6.00 throughout.
On to `CCC(CC)C(NS(=O)(=O)c1ccc(Cl)s1)c1nccn1Cc1ccccc1` (centres unmarked) [Example 28, N-[1-(1-Benzyl-1H-imidazol-2-yl)-2-ethylbutyl]-5-chlorothiophene-2-sulfonamide], for which the pEC50 in experiment [2] is 4.71. Also, in experiment [3], the fold induction at 20 µg/mL was 1.5.
Turning to `CCC(CC)C(NS(=O)(=O)c1ccc(Cl)s1)c1ccnn1-c1ccccc1` (centres unmarked) [Example 17, 5-Chloro-N-[2-ethyl-1-(1-phenyl-1H-pyrazol-5-yl)butyl]thiophene-2-sulfonamide], the negative logarithm of the EC50 (pEC50) was 5.00 in experiment [1] and 5.38 in experiment [2].
`O=S(=O)(NC(Cc1ccccc1)c1ccnn1-c1ccc(F)cc1)c1ccc(Cl)s1` (centres unmarked) [Example 35, 5-Chloro-N-{1-[1-(4-fluorophenyl)-1H-pyrazol-5-yl]-2-phenylethyl}thiophene-2-sulfonamide]: the pEC50 in experiment [1] was 4.17; in experiment [2], 4.89.
